What is called IC50 is the concentration at which inhibition is half-maximal.

For the test, the target named is T1, PDE5 enzyme (Homo sapiens, UniProt O76074).
T1 construct: The PDE5 enzyme isolated from human platelets; from tissue; host or cells: human platelets
As to the kind of experiment: Method 1: Human Platelet PDE5 Enzyme Inhibition Scintillation Proximity Assay. The test is classed as biochemical. To be noted: METHOD 1: PDE5 IC50, Table B, WO2004096810 examples. From the text: Method 1: Human Platelet PDE5 Enzyme Inhibition Scintillation Proximity Assay
An in vitro assay can be used to evaluate the inhibition of PDE5 enzyme activity by a test compound.
The PDE5 enzyme for use in the assay can be obtained from human platelets by appropriate modification of the method of Thompson, W J et al.; Biochemistry 18(23), 5228-5237, 1979, as described by Ballard S A et al.; J. Urology 159(6), 2164-2171, 1998. The PDE5 enzyme isolated from human platelets can be used to catalyze the hydrolysis of [^3H]cGMP (Amersham Biosciences) to 5′ nucleotide [^3H]GMP. The [^3H]GMP binds to yttrium silicate SPA beads (Amersham Biosciences) and is detected by scintillation counting. More specifically, the effect of the test compound at different concentrations can be evaluated in the assay by contacting the compound with a fixed amount of PDE5 enzyme in the presence of substrate (cGMP or cAMP in a 3:1 ratio unlabelled to [^3H]-labeled). Scintillation counting can be used as described above to determine relative PDE5 enzyme activity. The inhibition of PDE5 enzyme activity is then calculated relative to total PDE5 enzyme activity of uninhibited controls.
PDE5 IC50 Assay: 96-well microtiter plate format
• Buffer A: 20 mM Tris-HCl, 5 mM MgCl2, pH 7.4 • Buffer B: 2 mg/ml BSA in Buffer A (enzyme buffer) • cGMP substrate: Final concentration of 500 nM in assay The amount of ^3H-labeled substrate added depends upon the specific activity of [^3H]cGMP, and the cGMP substrate is diluted with a 10 mM stock of cold cGMP in Buffer A for a final substrate concentration of 500 nM in the assay. • PDE enzyme: Prepared in Buffer B. The dilution factor is determined by enzyme activity. • SPA beads: 20 mg/ml suspension prepared in dH2O.
Stocks of standard and test compounds are prepared at 5 mM in 100% DMSO. The compound is serially diluted in a dilution plate using a 10-point ½ log dilution format. 2 μl of the compound dilution is added in duplicate to the wells of the assay plate. 2 μl of 100% DMSO are added to designated control wells. 25 μl of Buffer A are added to all wells. 25 μl of Buffer B are added to the negative control wells. 25 μl of enzyme are added to the remaining wells. 50 μl of substrate are added to each well. Plates are sealed and incubated for 60 minutes on a plate shaker at 30 C. 50 plof SPA beads are added to stop the reaction. The plates are again sealed and shaken for 15 minutes to allow the beads to bind the GMP product. The beads are allowed to settle for 30 minutes and then read on a NXT TopCount scintillation counter. Data are analyzed with a curve fitting application for plate-based screening. Percent inhibition in this assay is calculated as follows: Inhibition (%)=[(mean maximum−compound value/(mean maximum−mean minimum)]×100.
The IC50 value is determined from sigmoid dose-response curves of enzyme activity versus compound concentration.
A general note: In a scintillation proximity assay essentially only radioactivity close to the scintillant gives light.
In the case of `CCOCCn1nc(C)c2nc(N3CCN[C@H](C)C3)nc(Nc3ccncn3)c21` [WO2004096810 Example 11], the IC50 turned out to be 0.29 nM.
In the case of `CCOCCn1nc(C)c2nc(N(C)CC)nc(Nc3ccncn3)c21` [WO2004096810 Example 217], the IC50 was found to be 2.55 nM.
Turning to `COCCn1nc(C)c2nc(N3C[C@H](C)NC[C@H]3C)nc(Nc3ccc(C)cn3)c21` [WO2004096810 Example 134], the half-inhibitory concentration (IC50) stood at 6.57 nM.
With `CCCc1nn(C)c2c(Nc3cc(C)cc(C)n3)nc(N3CCNCC3)nc12` [WO2004096810 Example 125] the figure was 182 nM.
As to `Cc1ccnc(Nc2nc(N3CCNCC3)nc3c(C)n(CC4CCC4)nc23)c1` [WO2004096810 Example 177], the IC50 was 535 nM.
Turning to `CCOCCn1nc(C)c2nc(N3CCN[C@H](C)C3)nc(Nc3cc(C)cc(C)n3)c21` [WO2004096810 Example 198], 10 nM corresponded to half-maximal inhibition (IC50).
`CCCOCCn1nc(C)c2nc(N3CCN[C@H](C)C3)nc(Nc3cc(C)ccn3)c21` [WO2004096810 Example 4] returned a half-inhibitory concentration (IC50) of 8.84 nM.
`CCOCCn1nc(C)c2nc(N(C)CCOC)nc(Nc3cc(C)ccn3)c21` [WO2004096810 Example 207]: the half-inhibitory concentration (IC50) is 1.55 nM.
In the case of `CCOCCn1nc(C)c2nc(N(C)[C@H]3CCN(C)C3)nc(Nc3cc(C)ccn3)c21` [WO2004096810 Example 161] it was 0.5 nM; in that of `CCOCCn1nc(C)c2nc(N3C[C@@H]4C[C@H]3CN4)nc(Nc3ccc(C)cn3)c21` [WO2004096810 Example 240], over 100 nM.
The compound `CCCc1nn(C)c2c(Nc3ccncn3)nc(N3CCN[C@H](C)C3)nc12` [WO2004096810 Example 91] registered a 50% inhibitory concentration (IC50) of 22.6 nM.
As to `CCCc1nn(C)c2c(N(C)C3CCN(C)CC3)nc(NC)nc12` [WO2004096810 Example 130], the IC50 was over 10000 nM.
Take `CCc1nn(CCOC)c2c(Nc3cc(C)ccn3)nc(N[C@H](C)CO)nc12` [WO2004096810 Example 154]: the half-maximal inhibitory concentration (IC50) was 12.6 nM.
In the case of `CCOCCn1nc(C)c2nc(N3C[C@@H]4C[C@H]3CN4)nc(Nc3ccncn3)c21` [WO2004096810 Example 241] it was 48.7 nM.
In the case of `CCCc1nn(C)c2c(Nc3cccnn3)nc(N3CCNCC3)nc12` [WO2004096810 Example 88] it was over 100 nM.
`Cc1ccnc(Nc2nc(N3CCNCC3)nc3c(C)nn(CC4CCCO4)c23)c1` (stereo not drawn) [WO2004096810 Example 166] had an IC50 of 11.5 nM.
`CCOCCn1nc(C)c2nc(N3CCN[C@@H](C)C3)nc(Nc3ccncn3)c21` [WO2004096810 Example 12] returned an IC50 of 1.74 nM.
`CCc1nn(CCOC)c2c(Nc3cc(C)ccn3)nc(NC[C@@H]3CCCN3)nc12` [WO2004096810 Example 98] showed a half-maximal inhibitory concentration (IC50) of 231 nM.
In the case of `COCCn1nc(C)c2nc(N3CCNCC3)nc(Nc3cc(C)ccn3)c21` [WO2004096810 Example 165], 10.5 nM corresponded to half-maximal inhibition (IC50).
With `CCOCCn1nc(CC)c2nc(N3CCN[C@H](C)C3)nc(N(C)c3ccncn3)c21` [WO2004096810 Example 28], the IC50 came out at 47.9 nM.
In the case of `CCOCCn1nc(C)c2nc(N(C)CC)nc(Nc3ccc(=O)n(C)c3)c21` [WO2004096810 Example 203] it was 0.63 nM; in that of `CCOCCn1nc(C)c2nc(N3C[C@@H](C)NC[C@@H]3C)nc(Nc3ccncn3)c21` [WO2004096810 Example 147], 2.46 nM; in that of `CCOCCn1nc(CC)c2nc(N3C[C@@H](C)NC[C@@H]3C)nc(Nc3ccc(C)cn3)c21` [WO2004096810 Example 149], 34.8 nM.
As for `COCCn1nc(C)c2nc(N3CC[C@H](OC)C3)nc(Nc3cc(C)ccn3)c21` [WO2004096810 Example 95], inhibition was half-maximal at 76 nM (IC50).
Compound `CCOCCn1nc(COC)c2nc(N(C)C3CCN(C)CC3)nc(Nc3cc(C)ccn3)c21` [WO2004096810 Example 214] came in with an IC50 of 0.37 nM.
`CNc1nc(Nc2cc(C)ccn2)c2c(n1)c(C)nn2CCCOC` [WO2004096810 Example 99]: inhibition was half-maximal at 239 nM (IC50).
With `CCOCCn1nc(C)c2nc(N(C)[C@H]3CCN(C)C3)nc(Nc3ccncn3)c21` [WO2004096810 Example 191] the figure was 0.24 nM.

Source of the values: patent publication US8518956B2, “1-(1-(2-ethoxyethyl)-3-ethyl-7-(4-methylpyridin-2-ylamino)-1H-pyrazolo[4,3-d]pyrimidin-5-yl) piperidine-4-carboxylic acid and salts thereof” (priority 2005, dated 2013).
